The record followed here is patent US8268873B2 (priority 1999, dated 2012).

Experiment [1] deals with human PBMC B cells. Put plainly: cells. It is filed as cell-based. To be noted: read-out: B-cells (IC50).
Experiment [2] concerns human PBMC T cells. The experiment is described as follows: cells. It counts as cell-based. To be noted: 72 h, read-out: T-cells (IC50).
The target in experiment [3] is IMPDH human type II (Homo sapiens, UniProt P12268). The experiment is described as follows: biochemical.

pIC50, pKi: −log10 of the molar value. Where two headings read alike, the source gives them in different places.

As usually defined, the pIC50 is the IC50 on a negative log10 scale, so that one unit is a factor of ten. `COc1cc(NC(=O)Nc2cccc([C@H](C)NC(=O)O[C@H]3CCOC3)c2)ccc1C#N` [Compound 185]: the pIC50 in experiment [1] is over 7.00. For `COc1cc(NC(=O)Nc2cccc(CNC(=O)OC3CCC[C@H]3N3CCOCC3)c2)ccc1-c1cnco1` (stereo partly shown) [Compound 80], the pIC50 in experiment [1] (Homo sapiens, 72 h) was over 7.00. For `COc1cc(NC(=O)Nc2cccc(CNC(=O)O[C@H](CN3CCCC3)c3ccccc3)c2)ccc1-c1cnco1` [Compound 98], the pIC50 in experiment [2] was over 7.00; in experiment [1] (Homo sapiens, 72 h), over 7.00. As for `CCN(C)CCC(OC(=O)NCc1cccc(NC(=O)Nc2ccc(-c3cnco3)c(OC)c2)c1)c1ccccc1` (stereo not shown) [Compound 139], the pIC50 was 6.00 to 7.00 in experiment [2] and 6.00 to 7.00 in experiment [1] (Homo sapiens, 72 h).

One may read the pKi as the Ki on a negative log10 scale, so that one unit is a factor of ten. A lower pKi goes with a large Ki. In experiment [3], `CC[C@@H](CC#N)OC(=O)NCc1cccc(NC(=O)Nc2ccc(-c3cnco3)c(OC)c2)c1` [Compound 88] showed a pKi of over 8.00.

In experiment [3], `C=CC(COC(C)=O)OC(=O)NCc1cccc(NC(=O)Nc2ccc(-c3cnco3)c(OC)c2)c1` (stereo not shown) [Compound 133] gave a pKi of 7.30 to 8.00. Turning to `CCC(CCC#N)OC(=O)NCc1cccc(NC(=O)Nc2ccc(-c3cnco3)c(OC)c2)c1` (stereo not shown) [Compound 45], in experiment [3], the pKi was over 8.00. `CC[C@H](COC(=O)CN)OC(=O)NCc1cccc(NC(=O)Nc2ccc(-c3cnco3)c(OC)c2)c1` [Compound 95] gave a pKi in experiment [3] (IMPDH human type II, 200 μM IMP, 200 μM NAD, 37° C.) of over 8.00.

Turning to `CC[C@H](CCC#N)OC(=O)NCc1cccc(NC(=O)Nc2ccc(-c3cnco3)c(OC)c2)c1` [Compound 89], the pIC50 in experiment [2] is over 7.00; in experiment [1] (Homo sapiens, 72 h) it was over 7.00.

Regarding `COc1cc(NC(=O)Nc2cccc(CNC(=O)OC[C@H](CC#N)NC(=O)OC(C)(C)C)c2)ccc1-c1cnco1` [Compound 10], the pIC50 in experiment [2] is 6.00 to 7.00.
